In patent publication EP3981864A1, “DETERGENT COMPOSITION” (priority 2020, dated 2022):

Tested on: Mycolicibacterium fortuitum αDOX (SEQ ID NO: 14), fatty acid alpha-dioxygenase, K0VM18, N-terminal His-tag variant SEQ ID NO: 275 (comparative)
Assay: Alpha-dioxygenase activity assay (oxygen consumption, TON)
Assay type: biochemical
Settings: fatty acid 100 µM, enzyme 6 ppm, 50 mM HEPES pH 9.0, 37°C; initial rate of oxygen consumption / enzyme concentration
Source text: Mycolicibacterium fortuitum αDOX (SEQ ID NO: 14) is a fatty acid alpha-dioxygenase that converts fatty acids into the corresponding 2-hydroperoxy fatty acids and is included as a comparative example of the present invention. A codon optimized gene (SEQ ID NO: 274) encoding for an alpha-dioxygenase variant (SEQ ID NO: 275), including an N-terminal amino acid sequence containing a His-tag was designed and synthesized by Genscript. After gene synthesis, the protein was expressed and purified. In brief, the complete synthetic gene sequence was subcloned into a pET30a vector using the NdeI/HindIII cloning sites. For heterologous expression, Escherichia coli BL21 (DE3) cells were transformed with the recombinant plasmid and a single colony was inoculated into LB medium containing kanamycin (50 mg/L). A pre-starter culture was then inoculated into flasks containing Magic Media (Thermo Fisher, Catalog # K6803) supplemented with kanamycin (50 mg/L) and incubated at 16 °C for 72 h. At an OD600nm = 0.5 - 1.0, 5-aminolevulinic acid (final concentration 0.5 mM) was added. Cells were harvested by centrifugation at 5000 rpm and 4°C and the pellet was lysed using a bacterial cell lysis buffer (B-PER - Themo Fisher, Waltham, MA). After centrifugation, the supernatant was collected, and the protein was purified by one-step purification using HisPur™ Ni-NTA Spin Columns (Thermo Scientific, Catalog # 88226) and standard protocols known in the art. […]
Reactions with alpha-dioxygenases were performed as follows. […] The reaction was incubated for up to 10 minutes at 37°C with 200 rpm agitation and the conversion was monitored using an oxygen sensor. The TON (in s-1) were calculated as the ratio between the initial rate of oxygen consumption (in µM/s) and the concentration of enzyme (in µM). […]

## CCCCCCCC/C=C\CCCCCCCC(=O)O [Oleic Acid]
  Oleic Acid, TON: 0.00 s⁻¹

## CCCCCCCCCCCCCCCC(=O)O [Palmitic Acid]
  Palmitic Acid, TON: 0.21 s⁻¹

## CCCCCCCCCCCCCCCCCC(=O)O [Stearic Acid]
  Stearic Acid, TON: 0.03 s⁻¹
